Experimental findings from article PMC4482662, “Engineered Trehalose Permeable to Mammalian Cells” (PLoS ONE, 2015) are described below.

The test system of data set [1] is rat hepatocytes. Nature of the data set: Uptake and intracellular deacetylation of acetylated trehalose in cultured rat hepatocytes (trehalase assay kit, total after NaOH hydrolysis). As to conditions: 30 mM incubation. Format: in vitro ADME. An excerpt:
Rat hepatocytes were provided by the Cell Resource Center (CRC) at the Center for Engineering in Medicine at Massachusetts General Hospital. Briefly, hepatocytes were obtained from female Lewis rats using a two-step collagenase protocol. Two or three month old rat (Charles River Laboratories, Wilmington, MA) weighing 180–200 g were used as hepatocyte source and were maintained in accordance with National Research Council guidelines. Experimental protocols in practice at CRC for the use of hepatocytes in this study were approved by the subcommittee on Research Animal Care, Massachusetts General Hospital. Using a modification of the two-step collagenase perfusion method, which involved purification of cell suspension by means of centrifugation over Percoll, approximately 200 million hepatocytes per rat liver with 85–95% viability were routinely obtained, as evaluated by Trypan blue exclusion. Hepatocytes were kept on ice and were plated within 1 h of isolation.
For trehalose loading experiments, 6-well plates were treated with 25μg/mL fibronectin for 1 h prior to plating the hepatocytes, at which point the wells were washed with PBS and the hepatocytes were seeded at 1.2–1.3×10^6 cells/well. The cells were allowed 24–48 h to attach and spread in a 10% (v/v) CO2 incubator at 37°C before they were incubated with acetylated variants of trehalose. […]
The cell lysates were analyzed for protein content using a Bradford Commassie assay for cell count approximation. Trehalose content of cell lysates were measured using a trehalose assay kit following the manufacturer’s protocol. […] This solution was analyzed for total trehalose content against the trehalose controls prepared in a similar fashion, and the concentration was adjusted for the dilution due to addition of NaOH and HCl. To estimate the number of cells, protein content of the cell lysate was assessed using the Pierce^TM Coomassie Plus (Bradford) assay (Life Technologies, Grand Island, NY, USA). […]

Data set [2] has as its system rat hepatocytes. The data set can be described thus: Hepatocyte albumin secretion ELISA, 14-day follow-up after loading. It counts as cell-based. On the set-up: dose or concentration left out as unconfirmed. How it is done: The hepatocytes were seeded at 0.6×10^6 cell/well on the collagen gel in 12-well plates. Collagen gel was formed by the addition of 200 μL of collagen solution to each well and incubation for 20 min at 37°C. The cells were allowed to attach and spread at least 24 h before the experiments. […] After the collagen solution solidified, 0.5 mL of medium was added per well and the plate was incubated at 10% CO2 and 37°C. Every 24 h for 14 days, the medium from each well was separately collected and 0.5 mL fresh medium was added to each well. The collected samples were stored at -80°C freezer until analyzed.
Albumin secretion was assayed following an ELISA protocol developed in-house. Briefly, 96-well high-binding ELISA plates were coated with 5 μg/well rat albumin in 100 μL PBS and incubated overnight at 4 °C. Coated plates were washed with PBS-Tween (0.05%) at least 3 times and 50 μL of the media or standards were added to wells in the plate. Albumin antibody was diluted 1:10000 in PBS-tween and 50 μL was added to each well and incubated overnight at 4 °C. At the end of incubation, the plates were washed with PBS-0.05% Tween at least 3 times. A substrate solution of o-phenylenediamine dihydro-chloride (OPD, 400 μg/mL) and 4 μM H2O2 was prepared in a citric acid buffer. […] Reaction was stopped by addition of 50 μL 8N sulfuric acid and the difference in absorbance was measured at 490 nm.
In general terms: ELISA stands for enzyme-linked immunosorbent assay.

Structures are written as SMILES.

`CC(=O)OC1C(CO)OC(OC2OC(CO)C(OC(C)=O)C(OC(C)=O)C2OC(C)=O)C(OC(C)=O)C1OC(C)=O` (centres unmarked) [6-O-Ac-Tre, trehalose hexaacetate]: the “uptake compared with trehalose, 2-Act-Tre and 4-Act-Tre” value in data set [1] is given as “at least one order of magnitude higher”. The “albumin secretion versus control” value in data set [2] is on record as “eventually increased to similar levels as the control group within 10 days”.
